pIC50: −log10 of the molar value.

Common to all, as to format: biochemical
One assay concerns the target T1, AKT2 (Homo sapiens, UniProt P31751).
T1 construct: purchased SignalChem
In words: AKT Kinase Assay (IMAP fluorescent polarisation) vs AKT2. An outline of the steps:
(§1)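 Phosphorylation of FAM-Crosstide detected by IMAP binding and fluorescence polarisation (485/528 nm), with IC50 fitted from % inhibition versus vehicle. Compound was incubated 45 min with enzyme, then reacted 1 h at room temperature with ATP and peptide in Tris/MgCl2/DTT buffer. Dose response had fourteen half-log points.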

Another assay has as its target T2, AKT3 (Homo sapiens, UniProt Q9Y243).
T2 construct: purchased SignalChem
The experiment in a line: AKT Kinase Assay (IMAP fluorescent polarisation) vs AKT3. An outline of the steps: as §1

Another assay has as its target T3, AKT1 (Homo sapiens, UniProt P31749).
T3 construct: purchased SignalChem
In words: AKT Kinase Assay (IMAP fluorescent polarisation) vs AKT1. An outline of the steps:
as §1

T1 sequence (P31751 whole entry): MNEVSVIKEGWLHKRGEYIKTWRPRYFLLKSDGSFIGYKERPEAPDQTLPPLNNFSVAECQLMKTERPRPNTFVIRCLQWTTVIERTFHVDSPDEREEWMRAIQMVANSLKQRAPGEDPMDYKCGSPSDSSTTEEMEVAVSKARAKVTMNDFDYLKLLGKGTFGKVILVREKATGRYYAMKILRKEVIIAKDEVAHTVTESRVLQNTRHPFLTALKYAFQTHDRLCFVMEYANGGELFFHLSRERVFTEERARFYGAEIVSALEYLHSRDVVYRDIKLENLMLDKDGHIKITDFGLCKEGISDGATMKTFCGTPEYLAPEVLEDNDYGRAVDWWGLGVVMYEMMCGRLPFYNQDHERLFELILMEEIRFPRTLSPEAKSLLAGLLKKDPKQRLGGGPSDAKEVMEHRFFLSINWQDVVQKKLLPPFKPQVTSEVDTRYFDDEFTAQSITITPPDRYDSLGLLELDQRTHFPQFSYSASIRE
T3 sequence (P31749 whole entry): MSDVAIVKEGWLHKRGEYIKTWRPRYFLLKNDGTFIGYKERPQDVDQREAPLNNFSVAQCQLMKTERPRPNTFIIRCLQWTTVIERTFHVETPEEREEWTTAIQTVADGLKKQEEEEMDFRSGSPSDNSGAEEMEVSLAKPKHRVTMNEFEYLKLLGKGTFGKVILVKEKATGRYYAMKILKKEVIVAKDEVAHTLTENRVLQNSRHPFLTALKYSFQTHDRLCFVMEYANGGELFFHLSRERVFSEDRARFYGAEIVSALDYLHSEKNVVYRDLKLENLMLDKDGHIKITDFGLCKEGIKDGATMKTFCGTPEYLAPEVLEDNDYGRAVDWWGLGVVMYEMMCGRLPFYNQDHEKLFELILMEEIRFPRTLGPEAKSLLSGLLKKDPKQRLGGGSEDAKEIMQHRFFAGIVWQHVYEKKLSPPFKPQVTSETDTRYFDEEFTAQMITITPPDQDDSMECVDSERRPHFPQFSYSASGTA
T2 sequence (Q9Y243 whole entry): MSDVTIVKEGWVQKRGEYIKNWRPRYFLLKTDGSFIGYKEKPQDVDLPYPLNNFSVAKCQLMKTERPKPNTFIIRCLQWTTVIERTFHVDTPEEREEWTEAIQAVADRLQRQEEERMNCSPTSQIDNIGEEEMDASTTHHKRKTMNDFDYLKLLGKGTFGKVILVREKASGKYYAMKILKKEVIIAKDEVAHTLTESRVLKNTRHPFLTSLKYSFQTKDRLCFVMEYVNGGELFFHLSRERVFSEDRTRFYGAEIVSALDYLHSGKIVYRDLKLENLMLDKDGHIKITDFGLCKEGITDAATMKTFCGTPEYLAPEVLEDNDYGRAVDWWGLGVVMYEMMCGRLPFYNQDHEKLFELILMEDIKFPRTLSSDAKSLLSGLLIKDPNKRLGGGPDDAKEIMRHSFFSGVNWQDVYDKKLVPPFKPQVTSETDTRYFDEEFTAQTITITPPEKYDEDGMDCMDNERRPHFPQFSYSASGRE

On to `CS(=O)(=O)N1CCOc2nc(-c3ccc(C4(N)CCC4)cc3)c(-c3ccccc3)cc21` [Example 70, 1-(4-(1-(methylsulfonyl)-7-phenyl-2,3-dihydro-1H-pyrido[2,3-b][1,4]oxazin-6-yl)phenyl)cyclobutanamine], for which the pIC50 was 6.00 to 7.00 at AKT2, < 5.00 on AKT3 and 6.00 to 7.00 at AKT1.
Regarding `NC1(c2ccc(-c3nc4c(cc3-c3ccccc3)NC(=O)C(CCO)O4)cc2)CCC1` (stereo not drawn) [Example 71, 6-(4-(1-aminocyclobutyl)phenyl)-3-(2-hydroxyethyl)-7-phenyl-1H-pyrido[2,3-b][1,4]oxazin-2(3H)-one], the values for the negative logarithm of the IC50 (pIC50) at AKT2, at AKT3 and at AKT1 were 5.00 to 6.00, 5.00 to 6.00 and 6.00 to 7.00, respectively.
`CN1CC(=O)Nc2cc(-c3ccccc3)c(-c3ccc(C4(N)CCC4)cc3)nc21` [Example 72, 6-(4-(1-aminocyclobutyl)phenyl)-4-methyl-7-phenyl-3,4-dihydropyrido[2,3-b]pyrazin-2(1H)-one]: the pIC50 on AKT2 is 5.00 to 6.00; at AKT3, < 5.00; at AKT1 it was 6.00 to 7.00.
For `CN1c2cc(-c3ccccc3)c(-c3ccc(C4(N)CCC4)cc3)nc2OCS1(=O)=O` [Example 73, 6-(4-(1-aminocyclobutyl)phenyl)-1-methyl-7-phenyl-1H-pyrido[3,2-e][1,3,4]oxathiazine 2,2-dioxide] the same measures were 6.00 to 7.00, < 5.00 and 5.00 to 6.00.
In the case of `NC1(c2ccc(-c3nc4c(cc3-c3ccccc3)N(c3cccnc3)S(=O)(=O)CO4)cc2)CCC1` [Example 74, 6-(4-(1-aminocyclobutyl)phenyl)-7-phenyl-1-(pyridin-3-yl)-1H-pyrido[3,2-e][1,3,4]oxathiazine 2,2-dioxide], the negative-log IC50 (pIC50) was 5.00 to 6.00 on AKT2, < 5.00 at AKT3 and 5.00 to 6.00 at AKT1.
On to `NC1(c2ccc(-c3nc4c(cc3-c3ccccc3)N(c3cccnc3)C(=O)CO4)cc2)CCC1` [Example 75, 6-(4-(1-aminocyclobutyl)phenyl)-7-phenyl-1-(pyridin-3-yl)-1H-pyrido[2,3-b][1,4]oxazin-2(3H)-one], for which the pIC50 was 5.00 to 6.00 on AKT2, < 5.00 on AKT3 and 5.00 to 6.00 on AKT1.
As to `N#CCN1c2cc(-c3ccccc3)c(-c3ccc(C4(N)CCC4)cc3)nc2OCS1(=O)=O` [Example 76, 2-(6-(4-(1-aminocyclobutyl)phenyl)-2,2-dioxido-7-phenyl-1H-pyrido[3,2-e][1,3,4]oxathiazin-1-yl)acetonitrile], the pIC50 at AKT2 was ≥ 7.00; on AKT3, < 5.00; at AKT1, 6.00 to 7.00.
On the same counts, the results for `CN1C(=O)C(CCO)Oc2nc(-c3ccc(C4(N)CCC4)cc3)c(-c3ccccc3)cc21` (stereo not drawn) [Example 77, 6-(4-(1-aminocyclobutyl)phenyl)-3-(2-hydroxyethyl)-1-methyl-7-phenyl-1H-pyrido[2,3-b][1,4]oxazin-2(3H)-one] are 5.00 to 6.00, < 5.00 and 6.00 to 7.00.
As for `N#CCN1C(=O)C(CCO)Oc2nc(-c3ccc(C4(N)CCC4)cc3)c(-c3ccccc3)cc21` (stereo not drawn) [Example 78], the results for the pIC50 on AKT2, at AKT3 and at AKT1 were 6.00 to 7.00, < 5.00 and 6.00 to 7.00, respectively.
Turning to `C[C@]1(O)C[C@@](N)(c2ccc(-c3nc4c(cc3-c3ccccc3)-n3c(n[nH]c3=O)CO4)cc2)C1` [Example 79, 7-(4-((1r,3r)-1-amino-3-hydroxy-3-methylcyclobutyl)phenyl)-8-phenyl-2,4-dihydro-1H-pyrido[2,3-b][1,2,4]triazolo[4,3-d][1,4]oxazin-1-one], the values for the pIC50 on AKT2, on AKT3 and on AKT1 were 6.00 to 7.00, 5.00 to 6.00 and ≥ 7.00, respectively.
Consider `CC1Oc2nc(-c3ccc(C4(N)CCC4)cc3)c(-c3ccccc3)cc2NC1=O` (stereo not drawn) [Example 80, 6-(4-(1-aminocyclobutyl)phenyl)-3-methyl-7-phenyl-1H-pyrido[2,3-b][1,4]oxazin-2(3H)-one], for which the values for the pIC50 at AKT2, at AKT3 and at AKT1 were 6.00 to 7.00, < 5.00 and 6.00 to 7.00, respectively.
`CC1Oc2nc(-c3ccc(C4(N)CCC4)cc3)c(-c3ccccc3)cc2N(CC#N)C1=O` (stereo not drawn) [Example 81, 2-(6-(4-(1-aminocyclobutyl)phenyl)-3-methyl-2-oxo-7-phenyl-2,3-dihydro-1H-pyrido[2,3-b][1,4]oxazin-1-yl)acetonitrile]: the pIC50 at AKT2 was 6.00 to 7.00; at AKT3 it was 5.00 to 6.00; at AKT1, ≥ 7.00.
On the same counts, the results for `CS(=O)(=O)CN1C(=O)COc2nc(-c3ccc(C4(N)CCC4)cc3)c(-c3ccccc3)cc21` [Example 82, 6-(4-(1-aminocyclobutyl)phenyl)-1-(methylsulfonylmethyl)-7-phenyl-1H-pyrido[2,3-b][1,4]oxazin-2(3H)-one] are ≥ 7.00, 5.00 to 6.00 and 5.00 to 6.00.
On the same counts, the results for `Cn1cc(N2C(=O)COc3nc(-c4ccc(C5(N)CCC5)cc4)c(-c4ccccc4)cc32)cn1` [Example 83, 6-(4-(1-aminocyclobutyl)phenyl)-1-(1-methyl-1H-pyrazol-4-yl)-7-phenyl-1H-pyrido[2,3-b][1,4]oxazin-2(3H)-one] are 5.00 to 6.00, 5.00 to 6.00 and 5.00 to 6.00.
On the same counts, the results for `CC1Oc2nc(-c3ccc(C4(N)CCC4)cc3)c(-c3ccccc3)cc2N(C)C1=O` (stereo not drawn) [Example 84, 6-(4-(1-aminocyclobutyl)phenyl)-1,3-dimethyl-7-phenyl-1H-pyrido[2,3-b][1,4]oxazin-2(3H)-one] are 5.00 to 6.00, 5.00 to 6.00 and 6.00 to 7.00.
Take `NC1(c2ccc(-c3nc4c(cc3-c3ccccc3)N(CC(F)F)C(=O)CO4)cc2)CCC1` [Example 85, 6-(4-(1-aminocyclobutyl)phenyl)-1-(2,2-difluoroethyl)-7-phenyl-1H-pyrido[2,3-b][1,4]oxazin-2(3H)-one]: the results for the pIC50 on AKT2, at AKT3 and at AKT1 were ≥ 7.00, 6.00 to 7.00 and 6.00 to 7.00, respectively.
`NC1(c2ccc(-c3nc4c(cc3-c3ccccc3)N(CCF)C(=O)CO4)cc2)CCC1` [Example 86, 6-(4-(1-aminocyclobutyl)phenyl)-1-(2-fluoroethyl)-7-phenyl-1H-pyrido[2,3-b][1,4]oxazin-2(3H)-one]: the figures for the pIC50 at AKT2, on AKT3 and at AKT1 were ≥ 7.00, 5.00 to 6.00 and 6.00 to 7.00, respectively.
On the same counts, the results for `NC1(c2ccc(-c3nc4c(cc3-c3ccccc3)NC(=O)NC4)cc2)CCC1` [Example 87, 6-(4-(1-aminocyclobutyl)phenyl)-7-phenyl-3,4-dihydropyrido[3,2-d]pyrimidin-2(1H)-one] are 5.00 to 6.00, < 5.00 and 6.00 to 7.00.
For `CCNC(=O)N1CCOc2nc(-c3ccc(C4(N)CCC4)cc3)c(-c3ccccc3)cc21` [Example 88, 6-(4-(1-aminocyclobutyl)phenyl)-N-ethyl-7-phenyl-2,3-dihydro-1H-pyrido[2,3-b][1,4]oxazine-1-carboxamide] the same measures were < 5.00, < 5.00 and < 5.00.
For `CN1Cc2nc(-c3ccc(C4(N)CCC4)cc3)c(-c3ccccc3)cc2N(C)C1=O` [Example 89, 6-(4-(1-aminocyclobutyl)phenyl)-1,3-dimethyl-7-phenyl-3,4-dihydropyrido[3,2-d]pyrimidin-2(1H)-one] the same measures were 6.00 to 7.00, 5.00 to 6.00 and 6.00 to 7.00.
Consider `CO/N=C1\COc2nc(-c3ccc(C4(N)CCC4)cc3)c(-c3ccccc3)cc2N1C` [Example 90, 6-(4-(1-Aminocyclobutyl)phenyl)-1-methyl-7-phenyl-1H-pyrido[2,3-b][1,4]oxazin-2(3H)-one O-methyl oxime], for which the pIC50 at AKT2 is 6.00 to 7.00; on AKT3, < 5.00; on AKT1, 5.00 to 6.00.
On the same counts, the results for `NC1(c2ccc(-c3nc4c(cc3-c3ccccc3)N(c3cccnc3)CCO4)cc2)CCC1` [Example 91, 1-(4-(7-phenyl-1-(pyridin-3-yl)-2,3-dihydro-1H-pyrido[2,3-b][1,4]oxazin-6-yl)phenyl)cyclobutanamine] are ≥ 7.00, 5.00 to 6.00 and 6.00 to 7.00.
For `NC1(c2ccc(-c3nc4c(cc3-c3ccccc3)-n3c(Br)nnc3CO4)cc2)CCC1` [Example 92, 1-(4-(1-bromo-8-phenyl-4H-pyrido[2,3-b][1,2,4]triazolo[4,3-d][1,4]oxazin-7-yl)phenyl)cyclobutanamine] the same measures were 5.00 to 6.00, 5.00 to 6.00 and 6.00 to 7.00.
On the same counts, the results for `C[C@H]1Oc2nc(-c3ccc(C4(N)CCC4)cc3)c(-c3ccccc3)cc2N(CC#N)C1=O` [Example 93, (R)-2-(6-(4-(1-aminocyclobutyl)phenyl)-3-methyl-2-oxo-7-phenyl-2,3-dihydro-1H-pyrido[2,3-b][1,4]oxazin-1-yl)acetonitrile] are ≥ 7.00, 5.00 to 6.00 and ≥ 7.00.
`C[C@H]1Oc2nc(-c3ccc(C4(N)CCC4)cc3)c(-c3ccccc3)cc2N(C)C1=O` [Example 94, (R)-6-(4-(1-aminocyclobutyl)phenyl)-1,3-dimethyl-7phenyl-1H-pyrido[2,3-b][1,4]oxazin-2(3H)-one]: the pIC50 on AKT2 was 5.00 to 6.00; at AKT3, < 5.00; at AKT1, 6.00 to 7.00.
On the same counts, the results for `COCC1Oc2nc(-c3ccc(C4(N)CCC4)cc3)c(-c3ccccc3)cc2N(CC#N)C1=O` (stereo not drawn) [Example 95, 2-(6-(4-(1-aminocyclobutyl)phenyl)-3-(methoxymethyl)-2-oxo-7-phenyl-2,3-dihydro-1H-pyrido[2,3-b][1,4]oxazin-1-yl)acetonitrile] are 6.00 to 7.00, < 5.00 and 6.00 to 7.00.

(Values after patent US9221838B2, “Inhibitors of AKT activity” (ALMAC DISCOVERY LIMITED, priority 2009, dated 2015).)
